Test results published in patent US20030022820A1, “IN VIVO ACTIVATION OF TUMOR-SPECIFIC CYTOTOXIC T CELLS” (priority 1995, published 2003).

Key:
A2.1/K^b-Tg mice = experiment: Peptide priming of A2.1/K^b-Tg mice, lytic activity of peptide-specific CTL; format: in vivo
HLA-A2.1 = HLA-A2.1 (Homo sapiens, UniProt P04439, D140Y/D185E/D98H/E176V/E277Q/G131W/G231S/I119V/I121R/I166T/I218V/L300P/L318F/N151K/N90K/P208A/P217A/Q86G/Q94H/R138H/R169H/T345S); experiment: Competition assay for peptide binding to HLA-A2.1 (inhibition of A clone 12 lysis of M1-pulsed EA2 targets)
JY = experiment: Cytotoxicity assay, lysis of human tumors by H3 and H7 specific CTL; format: cell-based; parameters: scale not given here; conditions: Lymphoma, A2 +, Her-2 −
Method: (§1) […] target cells were incubated at 37° C. with […] of sodium ^51Cr chromate for 90 minutes in the presence or absence of specific peptide. Cells were washed three times and resuspended in 5% RPMI. For the assay, […] ^51Cr-labeled target cells were incubated with different concentrations of effector cells in a final volume of […] in U-bottomed 96-well plates. Supernatants were removed after 4-7 hrs at 37° C., and the percent specific lysis was determined by the following formula: [formula]
(§2) Tumor cells were preincubated for 24 hours prior to the assay in media supplemented with γ-interferon (γ-IFN, 20 ng/ml) plus tumor necrosis factor-α (TNF-α, 3 ng/ml). It is known that such pretreatment of tumor cells increases the expression of MHC I and adhesion molecules such as ICAM I on the surface of the cell thus enhancing their sensitivity to lysis by CTL. (See, e.g., Fisk, et al., Lympho. & Cytokine Res. 13: 125-131 (1994); Fady, et al., Cancer Immunol. Immunother. 37: 329-336 (1993).)

MALME-3M = experiment: as above; format: cell-based; parameters: scale not given here; conditions: Melanoma, A2 +, Her-2 +
Method: as §1, §2

MDA.MB435 = experiment: as above; format: cell-based; parameters: scale not given here; conditions: Breast, A2 −, Her-2 +
Method: as §1, §2

[1] = tested on: A2.1/K^b×CD8 or A2.1 transgenic (Tg) mice; experiment: Immunization of transgenic mice with Her-2/neu peptides, cytotoxicity against peptide-pulsed T2-A2.1/K^b; format: in vivo; conditions: A2.1/K^b×CD8 or A2.1 Tg mice
Method: A2.1/K^b×CD8 and/or A2.1 transgenic mice were immunized with each of the peptides listed in Table 6 to determine if they could stimulate A2.1-restricted CTL. Mice were immunized with a mixture of 100 mg of the Her-2/neu peptide with 120 mg “helper” peptide in 100 ml Incomplete Freund's Adjuvant (IFA).
A2.1/K^b×CD8 or A2.1 lipopolysaccharide (LPS) -blasts were prepared as stimulators for in vitro restimulation of spleen cells from immunized mice. These were prepared by incubating splenocytes from A2/K^b or A2.1 mice in complete RPMI containing 25 mg/ml LPS and 7 mg/ml dextran sulfate at 1.5×10^6 cells/ml in a total volume of 30 ml for 3 days. […] Six days following in vitro restimulation, the CTL populations were assayed for lytic activity against T2-A2/K^b target cells preincubated with the peptide used for stimulation (15 mM). The resultant Her-2/neu peptide-specific CTL populations were maintained in vitro by weekly restimulation. […]
Spleen cells from injected animals were restimulated in vitro with irradiated syngeneic cells pulsed with the peptide used for in vivo priming. Immunogenicity was evaluated by assaying these cultured cells for cytotoxicity against T2-A2.1/K^b target cells pulsed with the priming peptide. […]

MDA.M8231 = experiment: Cytotoxicity assay, lysis of human tumors by H3 and H7 specific CTL; format: cell-based; conditions: Breast, A2 +
Method: as §1, §2

NCI.H1355 = experiment: as above; format: cell-based; conditions: Lung, A2 +
Method: as §1, §2

T98G = experiment: as above; format: cell-based; conditions: Glioblastoma, A2 +, Her-2 +
Method: as §1, §2

U87G = experiment: as above; format: cell-based; conditions: Glioblastoma, A2 +
Method: as §1, §2

ST486 = experiment: as above; format: cell-based; conditions: Lymphoma, A2 +, Her-2 −
Method: as §1, §2

BT549 = experiment: as above; format: cell-based; conditions: Breast, A2 +
Method: as §1, §2

Hep-G2 = experiment: as above; format: cell-based; conditions: Hepatoma, A2 +
Method: as §1, §2

SW480 = experiment: as above; format: cell-based; conditions: Colon, A2 +
Method: as §1, §2

SKMEL-5 = experiment: as above; format: cell-based; conditions: Melanoma, A2 +, Her-2 +
Method: as §1, §2

LG-2 = experiment: as above; format: cell-based; conditions: EBV-trans., A2 +, Her-2 −
Method: as §1, §2

MCF-7 = experiment: as above; format: cell-based; conditions: Breast, A2 +
Method: as §1, §2

SAOS.175 = experiment: as above; format: cell-based; conditions: Osteosarcoma, A2 +, Her-2 +
Method: as §1, §2

CASKI = experiment: as above; format: cell-based; conditions: Cervix, A2 +, Her-2 +
Method: as §1, §2

U2-OS = experiment: as above; format: cell-based; conditions: Osteosarcoma, A2 +, Her-2 +
Method: as §1, §2

OVCAR-5 = experiment: as above; format: cell-based; conditions: Ovarian, A2 +, Her-2 +
Method: as §1, §2

SV80 = experiment: as above; format: cell-based; conditions: Fibroblast, A2 +, Her-2 −
Method: as §1, §2

[2] = E:T 60:1, T2A2/K^b targets pulsed with two mg of peptide, highest of at least three individual mice
[3] = peptide-priming of A2.1/K^b-Tg mice
[4] = + CYT (γ-IFN 20 ng/ml plus TNF-α 3 ng/ml, 24 hours)

With LLPENNVLS [hu-wt-p53: 25-33] the “Lytic Activity by Peptide-Specific CTL After Priming of A2.1/K^b-Tg Mice [Specific 51Cr release (%)]” value (from here on “Lytic Activity … [Specific 51Cr release (%)]”) (A2.1/K^b-Tg mice; [2]) was 3%.
LLPENNVLSPL [hu-wt-p53: 25-35] was tested, and the “A2.1-binding activity / affinity, in words” value (HLA-A2.1) was “high affinity”, the “Lytic Activity … [Specific 51Cr release (%)]” value (A2.1/K^b-Tg mice; [2]) was 47% and the “A2.1/K^b-restricted peptide-specific CTL response, in words” value (A2.1/K^b-Tg mice; [3]) was “detectable”.
In the case of LMLSPDDIEQ [hu-wt-p53: 43-52], the “Lytic Activity … [Specific 51Cr release (%)]” value (A2.1/K^b-Tg mice; [2]) is reported as 3%.
With NLLGRNSFEV [hu-wt-p53: 263-272] the “Lytic Activity … [Specific 51Cr release (%)]” value (A2.1/K^b-Tg mice; [2]) was 3%.
For NTFRHSVVV [hu-wt-p53: 210-218], the “Lytic Activity … [Specific 51Cr release (%)]” value (A2.1/K^b-Tg mice; [2]) was 6%.
For PLDGEYFTL [hu-wt-p53: 322-330], the “A2.1-binding activity / affinity, in words” value (HLA-A2.1) was “intermediate”, the “Lytic Activity … [Specific 51Cr release (%)]” value (A2.1/K^b-Tg mice; [2]) was 0% and the “A2.1/K^b-restricted peptide-specific CTL response, in words” value (A2.1/K^b-Tg mice; [3]) was “lack of CTL responsiveness”.
“RGYVYQGL [VSV-N: 52-59, reference compound]” was tested, and the “(%) [inhibition of A2.1-binding of M1 (58-66)]” value (HLA-A2.1) was 4%.
In the case of RMPEAAPPV [hu-wt-p53: 65-73], the “A2.1-binding activity / affinity, in words” value (HLA-A2.1) is reported as “high affinity”, the “Lytic Activity … [Specific 51Cr release (%)]” value (A2.1/K^b-Tg mice; [2]) is reported as 85% and the “A2.1/K^b-restricted peptide-specific CTL response, in words” value (A2.1/K^b-Tg mice; [3]) is reported as “detectable”.
In the case of STPPPGTRV [hu-wt-p53: 149-157], the “A2.1-binding activity / affinity, in words” value (HLA-A2.1) is reported as “intermediate affinity”, the “A2.1/K^b-restricted peptide-specific CTL response, in words” value (A2.1/K^b-Tg mice; mouse, in vivo) is reported as “detectable” and the “Lytic Activity … [Specific 51Cr release (%)]” value (A2.1/K^b-Tg mice; mouse, in vivo) is reported as 91%.
With VAPAPAAPT [hu-wt-p53: 73-81] the “Lytic Activity … [Specific 51Cr release (%)]” value (A2.1/K^b-Tg mice; [2]) was 0%.
For VLSPLPSQA [hu-wt-p53: 31-39], the “Lytic Activity … [Specific 51Cr release (%)]” value (A2.1/K^b-Tg mice; [2]) was 3%.
VLSPLPSQAM [hu-wt-p53: 31-40] was tested, and the “Lytic Activity … [Specific 51Cr release (%)]” value (A2.1/K^b-Tg mice; [2]) was 0%.
For VMAGVGSPYV [Peptide H7], the “Killing of Tumors Expressing Her-2/neu” value (JY; [4]) was 2, the “Killing of Tumors Expressing Her-2/neu” value (JY; without cytokines) was 4 and the “Killing of Tumors Expressing Her-2/neu” value (MALME-3M; [4]) was 14. The “Killing of Tumors Expressing Her-2/neu” value (MALME-3M; without cytokines) was 4, the “Killing of Tumors Expressing Her-2/neu” value (MDA.MB435; [4]) was 1 and the “Killing of Tumors Expressing Her-2/neu” value (MDA.MB435; without cytokines) was 1. For the same sequence, the “ability to stimulate a CTL response in Tg mice, in words” value [1] was “able to stimulate a CTL response”, the “Killing of Tumors Expressing Her-2/neu” value (MDA.M8231; [4]) was 89 and the “Killing of Tumors Expressing Her-2/neu” value (MDA.M8231; without cytokines) was 26. For the same sequence, the “Killing of Tumors Expressing Her-2/neu” value (NCI.H1355; [4]) was 62, the “Killing of Tumors Expressing Her-2/neu” value (NCI.H1355; without cytokines) was 13 and the “Killing of Tumors Expressing Her-2/neu” value (T98G; [4]) was 93. The “Killing of Tumors Expressing Her-2/neu” value (T98G; without cytokines) was 29, the “Killing of Tumors Expressing Her-2/neu” value (U87G; [4]) was 1 and the “Killing of Tumors Expressing Her-2/neu” value (U87G; without cytokines) was 1. For the same sequence, the “Killing of Tumors Expressing Her-2/neu” value (ST486; [4]) was 8, the “Killing of Tumors Expressing Her-2/neu” value (ST486; without cytokines) was 5 and the “Killing of Tumors Expressing Her-2/neu” value (BT549; [4]) was 36. The “Killing of Tumors Expressing Her-2/neu” value (BT549; without cytokines) was 2, the “Killing of Tumors Expressing Her-2/neu” value (Hep-G2; [4]) was 29 and the “Killing of Tumors Expressing Her-2/neu” value (Hep-G2; without cytokines) was 4. The “Killing of Tumors Expressing Her-2/neu” value (SW480; [4]) was 17, the “Killing of Tumors Expressing Her-2/neu” value (SW480; without cytokines) was 2 and the “Killing of Tumors Expressing Her-2/neu” value (SKMEL-5; [4]) was 40. For the same sequence, the “Killing of Tumors Expressing Her-2/neu” value (SKMEL-5; without cytokines) was 16, the “Killing of Tumors Expressing Her-2/neu” value (LG-2; [4]) was 3 and the “Killing of Tumors Expressing Her-2/neu” value (LG-2; without cytokines) was 1. The “Killing of Tumors Expressing Her-2/neu” value (MCF-7; [4]) was 40, the “Killing of Tumors Expressing Her-2/neu” value (MCF-7; without cytokines) was 7 and the “Killing of Tumors Expressing Her-2/neu” value (SAOS.175; [4]) was 35. For the same sequence, the “Killing of Tumors Expressing Her-2/neu” value (SAOS.175; without cytokines) was 27, the “Killing of Tumors Expressing Her-2/neu” value (CASKI; [4]) was 20 and the “Killing of Tumors Expressing Her-2/neu” value (CASKI; without cytokines) was 9. The “Killing of Tumors Expressing Her-2/neu” value (U2-OS; [4]) was 62, the “Killing of Tumors Expressing Her-2/neu” value (U2-OS; without cytokines) was 30 and the “Killing of Tumors Expressing Her-2/neu” value (OVCAR-5; [4]) was 23. For the same sequence, the “Killing of Tumors Expressing Her-2/neu” value (OVCAR-5; without cytokines) was 13, the “Killing of Tumors Expressing Her-2/neu” value (SV80; [4]) was 2 and the “Killing of Tumors Expressing Her-2/neu” value (SV80; without cytokines) was 2.
